Key:
[1] = biological target: 5-hydroxytryptamine receptor 1A (Homo sapiens, UniProt P08908); assay: GPCRScan assay: inhibition of 5-HT1A; design: radioligand conc. used [nm] 0.5 – 1.0, parental cells stable CHO
[2] = biological target: T1, 5-hydroxytryptamine receptor 1B (Homo sapiens, UniProt P28222); assay: GPCRScan assay: inhibition of 5-HT1B; design: radioligand conc. used [nm] 0.6 – 1.5, parental cells stable HEK
[3] = biological target: T2, 5-hydroxytryptamine receptor 1D (Homo sapiens, UniProt P28221); assay: GPCRScan assay: inhibition of 5-HT1D; design: radioligand conc. used [nm] 1.0 – 2.0, parental cells HEKT
T2 sequence (P28221 whole entry): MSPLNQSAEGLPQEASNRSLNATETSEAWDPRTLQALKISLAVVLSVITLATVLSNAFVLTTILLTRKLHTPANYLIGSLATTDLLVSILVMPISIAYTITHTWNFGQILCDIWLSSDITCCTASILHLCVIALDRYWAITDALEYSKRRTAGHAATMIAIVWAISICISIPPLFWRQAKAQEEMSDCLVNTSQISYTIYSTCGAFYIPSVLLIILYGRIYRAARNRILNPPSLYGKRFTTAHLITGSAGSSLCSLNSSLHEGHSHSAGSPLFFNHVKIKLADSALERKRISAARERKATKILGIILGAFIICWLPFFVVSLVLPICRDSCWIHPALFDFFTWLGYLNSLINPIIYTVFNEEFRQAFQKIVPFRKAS

[4] = biological target: T3, 5-hydroxytryptamine receptor 3A (Homo sapiens, UniProt P46098); assay: GPCRScan assay: inhibition of 5-HT3; design: radioligand conc. used [nm] 1.0 – 2.0, parental cells HEKT
T3 sequence (P46098 whole entry): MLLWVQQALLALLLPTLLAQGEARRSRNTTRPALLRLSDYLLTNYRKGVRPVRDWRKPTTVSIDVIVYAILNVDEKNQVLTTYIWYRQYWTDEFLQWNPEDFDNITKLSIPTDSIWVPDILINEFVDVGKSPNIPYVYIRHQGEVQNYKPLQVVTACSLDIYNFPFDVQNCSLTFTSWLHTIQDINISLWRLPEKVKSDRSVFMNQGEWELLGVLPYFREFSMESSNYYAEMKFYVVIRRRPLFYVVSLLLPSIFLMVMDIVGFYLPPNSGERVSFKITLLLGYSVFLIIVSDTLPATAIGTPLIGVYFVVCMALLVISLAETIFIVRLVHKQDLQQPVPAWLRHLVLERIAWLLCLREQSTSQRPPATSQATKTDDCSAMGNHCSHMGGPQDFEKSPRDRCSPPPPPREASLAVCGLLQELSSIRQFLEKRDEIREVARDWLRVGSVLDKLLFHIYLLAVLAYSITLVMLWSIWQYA

[5] = biological target: T4, 5-hydroxytryptamine receptor 6 (Homo sapiens, UniProt P50406); assay: GPCRScan assay: inhibition of 5-HT6; design: radioligand conc. used [nm] 2.0 – 4.0, parental cells stable HEK
T4 sequence (P50406 whole entry): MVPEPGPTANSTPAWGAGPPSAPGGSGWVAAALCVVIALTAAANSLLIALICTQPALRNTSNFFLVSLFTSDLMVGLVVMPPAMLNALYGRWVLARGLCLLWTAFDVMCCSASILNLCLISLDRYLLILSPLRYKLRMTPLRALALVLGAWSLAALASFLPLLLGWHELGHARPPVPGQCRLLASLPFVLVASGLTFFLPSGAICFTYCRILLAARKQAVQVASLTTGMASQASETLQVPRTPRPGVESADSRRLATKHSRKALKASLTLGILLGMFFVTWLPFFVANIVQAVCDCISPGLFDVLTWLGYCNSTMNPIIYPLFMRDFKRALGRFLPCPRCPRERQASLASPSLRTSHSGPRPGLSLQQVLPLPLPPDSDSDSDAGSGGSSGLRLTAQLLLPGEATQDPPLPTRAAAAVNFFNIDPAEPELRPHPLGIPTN

D(2) dopamine receptor [6] = biological target: T5, D(2) dopamine receptor (Homo sapiens, UniProt P14416); assay: GPCRScan assay: inhibition of D2; design: radioligand conc. used [nm] 0.4 – 1.0, parental cells stable fibroblast
T5 sequence (P14416 whole entry): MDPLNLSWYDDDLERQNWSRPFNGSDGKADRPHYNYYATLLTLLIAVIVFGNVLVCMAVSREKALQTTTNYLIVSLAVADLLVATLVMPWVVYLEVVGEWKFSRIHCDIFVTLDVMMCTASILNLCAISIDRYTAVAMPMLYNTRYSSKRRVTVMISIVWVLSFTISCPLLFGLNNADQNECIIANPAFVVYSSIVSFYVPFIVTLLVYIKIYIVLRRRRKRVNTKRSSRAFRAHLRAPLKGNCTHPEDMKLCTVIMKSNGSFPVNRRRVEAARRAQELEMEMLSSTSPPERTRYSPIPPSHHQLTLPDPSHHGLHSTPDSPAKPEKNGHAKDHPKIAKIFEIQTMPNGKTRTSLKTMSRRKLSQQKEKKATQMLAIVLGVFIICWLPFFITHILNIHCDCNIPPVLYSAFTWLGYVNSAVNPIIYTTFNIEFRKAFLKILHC

[7] = biological target: T6, Sodium-dependent dopamine transporter (Homo sapiens, UniProt Q01959); assay: GPCRScan assay: inhibition of DAT; design: radioligand conc. used [nm] 3.6 – 16.0, parental cells stable HEK
T6 sequence (Q01959 whole entry): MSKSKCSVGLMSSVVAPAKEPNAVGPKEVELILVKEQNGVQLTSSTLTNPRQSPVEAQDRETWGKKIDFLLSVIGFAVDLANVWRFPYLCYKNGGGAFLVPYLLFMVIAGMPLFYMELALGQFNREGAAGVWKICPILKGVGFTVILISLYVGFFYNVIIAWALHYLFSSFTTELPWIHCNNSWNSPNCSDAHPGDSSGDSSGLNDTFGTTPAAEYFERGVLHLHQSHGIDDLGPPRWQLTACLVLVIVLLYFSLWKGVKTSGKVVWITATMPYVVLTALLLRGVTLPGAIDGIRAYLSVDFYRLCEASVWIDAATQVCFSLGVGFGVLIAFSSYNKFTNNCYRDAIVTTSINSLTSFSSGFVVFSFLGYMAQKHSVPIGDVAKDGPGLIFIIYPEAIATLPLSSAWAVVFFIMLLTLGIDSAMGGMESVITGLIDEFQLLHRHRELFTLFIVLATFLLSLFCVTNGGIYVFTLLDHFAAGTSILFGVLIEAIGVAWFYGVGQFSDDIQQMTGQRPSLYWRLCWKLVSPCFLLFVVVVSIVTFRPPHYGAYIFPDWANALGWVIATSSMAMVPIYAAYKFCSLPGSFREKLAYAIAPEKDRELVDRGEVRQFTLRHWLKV

[8] = biological target: GABA-A receptor; anion channel; assay: GPCRScan assay: inhibition of GABAA/BZP; type: protein-complex assay, Rattus norvegicus; design: radioligand conc. used [nm] 0.6 – 4.0, parental cells brain tissue
[9] = biological target: T7, Sigma intracellular receptor 2 (Homo sapiens, UniProt Q5BJF2); assay: GPCRScan assay: inhibition of Sigma 2; design: radioligand conc. used [nm] 5.0, parental cells HEKT
T7 sequence (Q5BJF2 whole entry): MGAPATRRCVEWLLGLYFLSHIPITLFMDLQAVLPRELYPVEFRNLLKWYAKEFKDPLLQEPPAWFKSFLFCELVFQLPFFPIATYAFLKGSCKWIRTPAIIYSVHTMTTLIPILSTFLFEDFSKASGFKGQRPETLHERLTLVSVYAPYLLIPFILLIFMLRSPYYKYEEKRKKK

[10] = biological target: 5-hydroxytryptamine receptor 1A (Homo sapiens) (UniProt P08908); conditions: Compound concentration 10.0 uM
[11] = biological target: T1, 5-hydroxytryptamine receptor 1B; conditions: Compound concentration 10.0 uM
[12] = biological target: T2, 5-hydroxytryptamine receptor 1D; conditions: Compound concentration 10.0 uM
[13] = biological target: 5-hydroxytryptamine receptor 1E (Homo sapiens) (UniProt P28566); conditions: Compound concentration 10.0 uM
[14] = biological target: 5-hydroxytryptamine receptor 2A (Homo sapiens) (UniProt P28223); conditions: Compound concentration 10.0 uM
Sequence of 5-hydroxytryptamine receptor 2A (Homo sapiens) (P28223 whole entry): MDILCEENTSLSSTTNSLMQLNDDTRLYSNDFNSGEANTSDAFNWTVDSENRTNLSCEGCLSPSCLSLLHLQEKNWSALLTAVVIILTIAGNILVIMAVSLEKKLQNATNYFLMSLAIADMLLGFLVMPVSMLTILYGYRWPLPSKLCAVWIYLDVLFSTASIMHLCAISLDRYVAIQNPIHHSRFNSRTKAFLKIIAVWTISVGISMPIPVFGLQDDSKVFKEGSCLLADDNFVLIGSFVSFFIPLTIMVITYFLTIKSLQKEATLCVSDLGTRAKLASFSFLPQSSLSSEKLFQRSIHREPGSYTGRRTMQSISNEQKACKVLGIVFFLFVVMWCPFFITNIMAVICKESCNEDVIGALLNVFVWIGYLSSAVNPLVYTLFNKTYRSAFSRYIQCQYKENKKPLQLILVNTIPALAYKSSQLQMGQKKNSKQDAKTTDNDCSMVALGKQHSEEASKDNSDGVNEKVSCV

[15] = biological target: 5-hydroxytryptamine receptor 2B (Homo sapiens) (UniProt P41595); conditions: Compound concentration 10.0 uM
[16] = biological target: 5-hydroxytryptamine receptor 2C (Homo sapiens) (UniProt P28335); conditions: Compound concentration 10.0 uM
[17] = biological target: 5-hydroxytryptamine receptor 3A (Homo sapiens) (UniProt P46098); conditions: Compound concentration 10.0 uM
[18] = biological target: 5-hydroxytryptamine receptor 5A (Homo sapiens) (UniProt P47898); conditions: Compound concentration 10.0 uM
[19] = biological target: T4, 5-hydroxytryptamine receptor 6; conditions: Compound concentration 10.0 uM
[20] = biological target: 5-hydroxytryptamine receptor 7 (Homo sapiens) (UniProt P34969); conditions: Compound concentration 10.0 uM
[21] = biological target: D(1A) dopamine receptor (Homo sapiens) (UniProt P21728); conditions: Compound concentration 10.0 uM
D(2) dopamine receptor [22] = biological target: T5, D(2) dopamine receptor; conditions: Compound concentration 10.0 uM
[23] = biological target: D(3) dopamine receptor (Homo sapiens) (UniProt P35462); conditions: Compound concentration 10.0 uM
[24] = biological target: D(4) dopamine receptor (Homo sapiens) (UniProt P21917); conditions: Compound concentration 10.0 uM
[25] = biological target: D(1B) dopamine receptor (Homo sapiens) (UniProt P21918); conditions: Compound concentration 10.0 uM
Sequence of D(1B) dopamine receptor (Homo sapiens) (P21918 whole entry): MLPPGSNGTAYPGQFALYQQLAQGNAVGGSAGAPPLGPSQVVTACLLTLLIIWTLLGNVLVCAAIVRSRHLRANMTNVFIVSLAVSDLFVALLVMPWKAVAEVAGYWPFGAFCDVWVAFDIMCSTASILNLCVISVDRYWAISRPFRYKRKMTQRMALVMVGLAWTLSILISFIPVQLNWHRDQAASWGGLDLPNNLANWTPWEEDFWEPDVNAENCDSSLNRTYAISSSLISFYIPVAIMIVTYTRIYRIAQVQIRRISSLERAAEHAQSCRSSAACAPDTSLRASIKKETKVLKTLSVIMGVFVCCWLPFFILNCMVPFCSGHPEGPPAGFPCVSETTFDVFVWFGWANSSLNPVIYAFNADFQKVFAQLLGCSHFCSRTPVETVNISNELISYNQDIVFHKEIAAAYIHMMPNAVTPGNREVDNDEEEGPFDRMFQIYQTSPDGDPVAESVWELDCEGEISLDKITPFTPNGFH

[26] = biological target: Sodium-dependent serotonin transporter (Homo sapiens) (UniProt P31645); conditions: Compound concentration 10.0 uM
[27] = biological target: Sodium-dependent noradrenaline transporter (Homo sapiens) (UniProt P23975); conditions: Compound concentration 10.0 uM
[28] = biological target: T6, Sodium-dependent dopamine transporter; conditions: Compound concentration 10.0 uM
[29] = biological target: Mu-type opioid receptor (Homo sapiens) (UniProt P35372); conditions: Compound concentration 10.0 uM
[30] = biological target: Delta-type opioid receptor (Homo sapiens) (UniProt P41143); conditions: Compound concentration 10.0 uM
[31] = biological target: Kappa-type opioid receptor (Homo sapiens) (UniProt P41145); conditions: Compound concentration 10.0 uM
[32] = biological target: T8, GABA-A receptor; anion channel (Rattus norvegicus) (UniProt O09028+P15431+P18506+P18508+P19969+P20236+P23574+P23576+P28471+P28473+P30191+P62813+P63079+P63138+Q91ZM7+Q9ES14); conditions: Compound concentration 10.0 uM
[33] = biological target: Histamine H1 receptor (Homo sapiens) (UniProt P35367); conditions: Compound concentration 10.0 uM
[34] = biological target: Histamine H2 receptor (Homo sapiens) (UniProt P25021); conditions: Compound concentration 10.0 uM
[35] = biological target: Histamine H3 receptor (Homo sapiens) (UniProt Q9Y5N1); conditions: Compound concentration 10.0 uM
Sequence of Histamine H3 receptor (Homo sapiens) (Q9Y5N1 whole entry): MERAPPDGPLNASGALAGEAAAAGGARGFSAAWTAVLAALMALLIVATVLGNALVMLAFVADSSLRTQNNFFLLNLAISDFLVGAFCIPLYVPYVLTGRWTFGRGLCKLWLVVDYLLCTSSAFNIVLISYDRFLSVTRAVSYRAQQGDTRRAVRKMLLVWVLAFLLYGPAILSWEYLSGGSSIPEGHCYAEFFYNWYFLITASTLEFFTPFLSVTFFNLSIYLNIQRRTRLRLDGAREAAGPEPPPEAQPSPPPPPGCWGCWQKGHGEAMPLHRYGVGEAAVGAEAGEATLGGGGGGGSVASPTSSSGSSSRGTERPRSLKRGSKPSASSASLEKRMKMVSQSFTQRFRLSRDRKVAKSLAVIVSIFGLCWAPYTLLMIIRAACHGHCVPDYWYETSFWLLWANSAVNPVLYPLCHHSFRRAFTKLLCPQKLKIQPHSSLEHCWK

[36] = biological target: Histamine H4 receptor (Homo sapiens) (UniProt Q9H3N8); conditions: Compound concentration 10.0 uM
[37] = biological target: Alpha-1A adrenergic receptor (Homo sapiens) (UniProt P35348); conditions: Compound concentration 10.0 uM
Sequence of Alpha-1A adrenergic receptor (Homo sapiens) (P35348 whole entry): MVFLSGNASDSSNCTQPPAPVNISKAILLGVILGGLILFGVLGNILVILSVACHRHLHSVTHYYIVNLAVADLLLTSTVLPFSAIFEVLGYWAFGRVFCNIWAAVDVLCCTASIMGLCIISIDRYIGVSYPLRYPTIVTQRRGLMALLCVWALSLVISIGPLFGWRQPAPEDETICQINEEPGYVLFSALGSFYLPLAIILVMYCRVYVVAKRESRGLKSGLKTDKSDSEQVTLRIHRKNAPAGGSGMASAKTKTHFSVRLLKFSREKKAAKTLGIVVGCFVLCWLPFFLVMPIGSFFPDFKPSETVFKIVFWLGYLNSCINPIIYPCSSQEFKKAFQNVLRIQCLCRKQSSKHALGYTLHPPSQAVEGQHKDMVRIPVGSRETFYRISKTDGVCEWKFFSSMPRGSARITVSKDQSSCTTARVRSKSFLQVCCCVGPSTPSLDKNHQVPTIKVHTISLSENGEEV

[38] = biological target: Alpha-1B adrenergic receptor (Homo sapiens) (UniProt P35368); conditions: Compound concentration 10.0 uM
[39] = biological target: Alpha-2A adrenergic receptor (Homo sapiens) (UniProt P08913); conditions: Compound concentration 10.0 uM
[40] = biological target: Alpha-2B adrenergic receptor (Homo sapiens) (UniProt P18089); conditions: Compound concentration 10.0 uM
[41] = biological target: Alpha-2C adrenergic receptor (Homo sapiens) (UniProt P18825); conditions: Compound concentration 10.0 uM
[42] = biological target: Beta-1 adrenergic receptor (Homo sapiens) (UniProt P08588); conditions: Compound concentration 10.0 uM
[43] = biological target: Beta-2 adrenergic receptor (Homo sapiens) (UniProt P07550); conditions: Compound concentration 10.0 uM
[44] = biological target: Muscarinic acetylcholine receptor M1 (Homo sapiens) (UniProt P11229); conditions: Compound concentration 10.0 uM
[45] = biological target: Muscarinic acetylcholine receptor M2 (Homo sapiens) (UniProt P08172); conditions: Compound concentration 10.0 uM
[46] = biological target: Muscarinic acetylcholine receptor M3 (Homo sapiens) (UniProt P20309); conditions: Compound concentration 10.0 uM
[47] = biological target: Muscarinic acetylcholine receptor M4 (Homo sapiens) (UniProt P08173); conditions: Compound concentration 10.0 uM
Sequence of Muscarinic acetylcholine receptor M4 (Homo sapiens) (P08173 whole entry): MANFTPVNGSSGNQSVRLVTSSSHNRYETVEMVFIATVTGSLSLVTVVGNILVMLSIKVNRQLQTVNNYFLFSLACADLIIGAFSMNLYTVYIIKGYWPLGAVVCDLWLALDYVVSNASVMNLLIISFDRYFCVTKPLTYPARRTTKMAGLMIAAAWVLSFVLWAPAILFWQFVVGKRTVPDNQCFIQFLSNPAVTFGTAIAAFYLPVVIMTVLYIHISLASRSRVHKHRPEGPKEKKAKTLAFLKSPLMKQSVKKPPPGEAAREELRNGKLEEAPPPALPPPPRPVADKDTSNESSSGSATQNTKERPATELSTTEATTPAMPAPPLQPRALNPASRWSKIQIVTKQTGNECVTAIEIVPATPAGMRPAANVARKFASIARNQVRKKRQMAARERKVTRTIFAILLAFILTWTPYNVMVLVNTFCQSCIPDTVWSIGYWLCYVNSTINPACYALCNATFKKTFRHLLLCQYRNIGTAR

[48] = biological target: Muscarinic acetylcholine receptor M5 (Homo sapiens) (UniProt P08912); conditions: Compound concentration 10.0 uM
[49] = biological target: Beta-3 adrenergic receptor (Homo sapiens) (UniProt P13945); conditions: Compound concentration 10.0 uM
[50] = biological target: T8, GABA-A receptor; anion channel (Rattus norvegicus); conditions: Compound concentration 10.0 uM; remark: listed apart in the source
Rattus norvegicus = species: Rattus norvegicus; conditions: Compound concentration 10.0 uM
[51] = biological target: Alpha-1D adrenergic receptor (Homo sapiens) (UniProt P25100); conditions: Compound concentration 10.0 uM
[52] = biological target: T7, Sigma intracellular receptor 2; conditions: Compound concentration 10.0 uM
[53] = biological target: Sigma non-opioid intracellular receptor 1 (Homo sapiens) (UniProt Q99720); conditions: Compound concentration 10.0 uM
[54] = biological target: Alpha-1B adrenergic receptor (Homo sapiens, UniProt P35368); assay: GPCRScan assay: inhibition of Alpha1B; design: radioligand conc. used [nm] 0.3 – 1.0, parental cells stable HEK
[55] = biological target: T9, Mas-related G-protein coupled receptor member X2 (Homo sapiens, UniProt Q96LB1); assay: PRESTO-Tango concentration response assay
[56] = biological target: T9, Mas-related G-protein coupled receptor member X2; assay: FLIPR assay

T1 sequence (P28222 whole entry): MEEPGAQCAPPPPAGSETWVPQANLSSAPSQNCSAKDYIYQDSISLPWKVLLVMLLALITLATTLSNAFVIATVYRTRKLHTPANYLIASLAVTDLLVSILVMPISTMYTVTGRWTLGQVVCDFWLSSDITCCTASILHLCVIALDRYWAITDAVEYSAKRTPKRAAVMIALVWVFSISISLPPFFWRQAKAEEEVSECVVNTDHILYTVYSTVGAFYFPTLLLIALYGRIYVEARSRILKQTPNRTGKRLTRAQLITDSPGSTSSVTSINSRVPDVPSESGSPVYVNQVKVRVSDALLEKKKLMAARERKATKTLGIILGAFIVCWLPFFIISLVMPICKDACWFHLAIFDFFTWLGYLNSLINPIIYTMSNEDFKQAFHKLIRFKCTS

CN(C)[C@@H]1CCN(c2cc(-c3ccccc3)nc3ccnn23)C1 [(R)-ZINC-3573]
369 nM: Ki (D(2) dopamine receptor [6]; read-out: Ki)
1940 nM: Ki [8]
489 nM: Ki ([9]; read-out: Ki)
355 nM: Ki (D(2) dopamine receptor [6]; read-out: pKi (converted))
active: inhibition [10] 64.8% | inhibition [11] 52.5% | inhibition [12] 58.4% | inhibition [17] 76.6% | inhibition [19] 58.9% | inhibition (D(2) dopamine receptor [22]) 69.8% | inhibition [28] 74.3% | inhibition [50] 54.9% | inhibition [52] 82.4%
2960 nM: Ki ([4]; read-out: Ki)
1620 nM: Ki [1]
1100 nM: Ki ([7]; read-out: pKi (converted))
inactive: inhibition [13] 7.26% | inhibition [14] 16.3% | inhibition [15] 16.7% | inhibition [16] 2.22% | inhibition [18] 13.8% | inhibition [20] 12.3% | inhibition [21] 38.9% | inhibition [23] 28.1% | inhibition [24] 32.6% | inhibition [25] 6.36% | inhibition [26] 4.09% | inhibition [27] 45.4% | inhibition [29] 21.3% | inhibition [30] 34.3% | inhibition [31] 13.6% | inhibition [32] 37.3% | inhibition [33] 39.3% | inhibition [34] 31.9% | inhibition [35] 38.6% | inhibition [36] 7.75% | inhibition [37] 21.8% | inhibition [38] 10.2% | inhibition [39] 32.9% | inhibition [40] 11.3% | inhibition [41] 40.5% | inhibition [42] 30.7% | inhibition [43] 14.4% | inhibition [44] 5.27% | inhibition [45] 20.1% | inhibition [46] 11.7% | inhibition [47] 28.8% | inhibition [48] -3.76% | inhibition [49] 12.7% | inhibition (Rattus norvegicus) 11.6% | inhibition [51] 20.4% | inhibition [53] 28.6%
5.73: pKi [8]
2880 nM: Ki ([4]; read-out: pKi (converted))
1110 nM: Ki ([7]; read-out: Ki)
748 nM: Ki ([5]; read-out: Ki)
1740 nM: Ki ([3]; read-out: Ki)
479 nM: Ki ([9]; read-out: pKi (converted))
3240 nM: Ki [2]
1700 nM: Ki ([3]; read-out: pKi (converted))

CN(C)[C@H]1CCN(c2cc(-c3ccccc3)nc3ccnn23)C1 [(S)-ZINC-3573]
2880 nM: Ki ([3]; read-out: pKi (converted))
inactive: inhibition [10] 19.3% | inhibition [11] 4.88% | inhibition [14] 23.5% | inhibition [15] 33.3% | inhibition [16] -3.16% | inhibition [18] 5.42% | inhibition [20] 7.57% | inhibition (D(2) dopamine receptor [22]) 2.85% | inhibition [23] 39% | inhibition [24] 8.3% | inhibition [25] 3.36% | inhibition [26] 2.83% | inhibition [27] 2.02% | inhibition [28] -1.89% | inhibition [29] 9.07% | inhibition [30] 2.89% | inhibition [31] 6.22% | inhibition [33] 16.4% | inhibition [34] 30% | inhibition [35] 13.4% | inhibition [36] 12.4% | inhibition [37] 34.2% | inhibition [39] 40.2% | inhibition [40] 9.93% | inhibition [41] 16.4% | inhibition [42] 4.16% | inhibition [43] 27.4% | inhibition [44] 42.8% | inhibition [45] 26.6% | inhibition [46] 29.4% | inhibition [47] 34.4% | inhibition [48] 40.4% | inhibition [49] 18.9% | inhibition [50] 21.5% | inhibition (Rattus norvegicus) 2.83% | inhibition [51] 33.5% | inhibition [53] 22%
2110 nM: Ki ([54]; read-out: pKi (converted))
2290 nM: Ki ([54]; read-out: Ki)
3550 nM: Ki ([4]; read-out: pKi (converted))
1080 nM: Ki ([5]; read-out: pKi (converted))
973 nM: Ki ([9]; read-out: Ki)
2960 nM: Ki ([3]; read-out: Ki)
active: inhibition [12] 63.2% | inhibition [17] 64.5% | inhibition [19] 69.1% | inhibition [38] 59.1% | inhibition [52] 65.1%
1090 nM: Ki ([5]; read-out: Ki)
> 100000 nM (not active): EC50 [55] | EC50 [56]
3630 nM: Ki ([4]; read-out: Ki)

Source: ChEMBL document CHEMBL4507322, “Data for DCP probe (R)-ZINC-3573” (2021)
